Measurements taken from patent US20260207654A1, “HEPARAN SULFATE AND ITS MIMETICS AS CHEMOKINE INHIBITORS” (INDIAN INSTITUTE OF SCIENCE EDUCATION AND RESEARCH, priority 2021, published 2026).

How the values were obtained:
Test in all cases: Chemokine glycan microarray binding assay
Details in all cases: maximum RFU set as 100% binding, average across 2 glycan concentrations and 3 chemokine dilutions (n=6)
CCL13 = CCL13 (Homo sapiens, UniProt Q99616)
Experimental: (§1) Microarray Studies: The compounds of the present invention were covalently immobilized on epoxy group collated glass slides. Slides were rehydrated with dH2O and incubated for 30 min in a staining dish with 50° C. prewarmed ethanolamine (0.05 M) in Tris-HCl (0.1 M, pH 9.0) to block the remaining reactive epoxy groups on the slide surface, then washed with 50° C. prewarmed dH2O. Slides were centrifuged at 200 g for 3 min, then fitted with the ProPlate Multi-Array 16-well slide module (Grace Bio-lab P37001) to divide into the subarrays (blocks). Slides were washed with PBST (0.1% Tween 20), aspirated, and blocked with 200 μL/subarray of blocking buffer (PBS pH 7.3+1% w/v ovalbumin) for 1 h at RT with gentle shaking. Next, the blocking solution was aspirated and 100 μL/block of primary chemokines diluted in PBS pH 7.3+1% w/v ovalbumin were incubated with gentle shaking for 2 hours at RT. Slides were washed 4 times with PBST, then with PBS (without Tween-20) for 2 min. Bound antibodies were detected by incubating with biotinylated secondary detections (1 ng/μL) diluted in PBS, 200 μL/block at RT for 1 h. Slides were washed 4 times with PBST, then with PBS (without Tween-20) for 2 min and biotinylated antibodies were detected with Cy3-SA ([…]). Slides were washed 4 times with PBST, then with PBS for 10 min followed by removal from the ProPlate Multi-Array slide module and immediately dipping in a staining dish with dH2O for 10 min with shaking. The slides were then centrifuged at 200 g for 3 min, and the dry slides immediately scanned. Binding was tested at three serial dilutions, then detected with the relevant biotinylated secondary antibody (1 μg/mL) followed by Cy3-strepavidin (1.5 μg/mL). Arrays were scanned and RFUs were calculated of chemokines binding to 100 μM glycans printed at four replicates. Rank binding of chemokines (each at three dilutions) to glycans printed at four replicates each was calculated and summarized in Table 1. For each binding assay per printed block, the maximum RFU was determined and set as 100% binding. Then, binding to all other glycans in the same block was ranked in comparison to the maximal binding, and average rank binding (and SEM) for each glycan across the three examined concentrations of each chemokine was calculated. This analysis allowed to compare the glycan-binding profiles of the different chemokines and dissect their binding preferences.
(§2) Table 1. Chemokine glycan microarray binding assay. Binding was tested at 3 serial dilutions, then detected with the relevant biotinylated secondary antibody (1 μg/ml) followed by Cy3-Strepavidin (1.5 μg/ml) (Table SX). Arrays were scanned, relative fluorescent units (RFU) obtained, and maximum RFU determined and set as 100% binding. Then rank binding (per printed glycan per concentration, per each chemokine dilution, per printed block) was determined. Since each glycans was printed at 2 concentration, 100% binding was set separately for each concentration. Then, binding to all the other glycans at the same concentration was ranked in comparison to the maximal binding, and the average rank binding and SEM for each glycan across the two glycan concentrations and three examined dilutions of each chemokine was calculated (n=6, 2 glycan concentrations across 3 chemokine dilutions). This analysis allowed to compare the glycan binding profiles of the different chemokines and dissect their binding preferences. The mean rank is shown as a heatmap of all the examined binding assays together (red highest, blue lowest and white 50th percentile of ranking).

CCL2 = CCL2 (Homo sapiens, UniProt P13500)
CCL2, sequence (P13500 24-99, species assumed): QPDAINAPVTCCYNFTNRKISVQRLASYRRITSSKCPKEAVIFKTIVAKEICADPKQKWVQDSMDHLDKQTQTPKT
Experimental: as §1, §2

CCL21 = target: T1, CCL21 (Homo sapiens, UniProt O00585)
T1 sequence (O00585 24-134): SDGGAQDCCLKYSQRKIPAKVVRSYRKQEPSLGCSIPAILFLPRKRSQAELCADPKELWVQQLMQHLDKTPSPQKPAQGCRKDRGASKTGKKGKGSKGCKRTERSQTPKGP
Experimental: as §1, §2

CCL28 = target: T2, CCL28 (Homo sapiens, UniProt Q9NRJ3)
T2 sequence (Q9NRJ3 20-127): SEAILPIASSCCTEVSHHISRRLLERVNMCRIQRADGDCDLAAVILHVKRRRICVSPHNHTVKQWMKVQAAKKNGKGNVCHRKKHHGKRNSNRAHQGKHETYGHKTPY
Experimental: as §1, §2

CCL5 = target: T3, CCL5 (Homo sapiens, UniProt P13501)
T3 sequence (P13501 24-91): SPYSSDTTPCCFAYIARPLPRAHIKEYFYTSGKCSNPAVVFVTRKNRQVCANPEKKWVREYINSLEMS
Experimental: as §1, §2

CCL7 = CCL7 (Homo sapiens, UniProt P80098)
CCL7, sequence (P80098 24-99, species assumed): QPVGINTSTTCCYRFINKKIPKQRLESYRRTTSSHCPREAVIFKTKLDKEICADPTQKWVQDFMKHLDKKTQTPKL
Experimental: as §1, §2

CXCL10 = target: T4, CXCL10 (Homo sapiens, UniProt P02778)
T4 sequence (P02778 22-98): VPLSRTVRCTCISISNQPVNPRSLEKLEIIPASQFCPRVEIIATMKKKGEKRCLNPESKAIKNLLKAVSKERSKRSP
Experimental: as §1, §2

CXCL12 = CXCL12 (Homo sapiens, UniProt P48061)
CXCL12, sequence (P48061 22-93, species assumed): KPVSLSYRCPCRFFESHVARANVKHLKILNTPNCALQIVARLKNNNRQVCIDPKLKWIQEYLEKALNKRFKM
Experimental: as §1, §2

CXCL8 = target: T5, CXCL8 (Homo sapiens, UniProt P10145)
T5 sequence (P10145 21-99): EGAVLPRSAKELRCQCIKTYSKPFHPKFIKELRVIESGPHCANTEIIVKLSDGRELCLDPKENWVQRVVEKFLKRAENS
Experimental: as §1, §2

CCL13, sequence (Q99616 17-98, species assumed): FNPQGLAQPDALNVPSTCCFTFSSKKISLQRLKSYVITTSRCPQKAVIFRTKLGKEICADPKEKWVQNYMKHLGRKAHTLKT

| Structure (SMILES) | mean rank binding to CCL13 (CCL13) [%] | mean rank binding to CCL2 (CCL2) [%] | mean rank binding to CCL21 (CCL21) [%] | mean rank binding to CCL28 (CCL28) [%] | mean rank binding to CCL5 (CCL5) [%] | mean rank binding to CCL7 (CCL7) [%] | mean rank binding to CXCL10 (CXCL10) [%] | mean rank binding to CXCL12 (CXCL12) [%] | mean rank binding to CXCL8 (CXCL8) [%] |
| --- | --- | --- | --- | --- | --- | --- | --- | --- | --- |
| NCCCO[C@@H]1OC(C(=O)O)[C@@H](O[C@H]2OC(COS(=O)(=O)O)[C@@H](O[C@@H]3OC(C(=O)O)[C@@H](O[C@H]4OC(COS(=O)(=O)O)[C@@H](O)[C@H](O)C4N)C(O)[C@@H]3O)[C@H](O)C2N)C(O)[C@@H]1O (stereo partly drawn) [Example 23, 3-Aminopropyl-O-[(2-amino-6-O-sulfonato-2-deoxy-α-D-glucopyranosyl)-(1→4)-O-(α-L-idopyranosyluronate)-(1→4)-O-(2-amino-6-O-sulfonato-2-deoxy-α-D-glucopyranosyl)]-(1→4)-O-α-L-idopyranosiduronate] | 45 | 1 | 25 | 38 | 3 | 11 | 15 | 25 | 5 |
| CC(=O)NC1C(O)[C@H](O)C(COS(=O)(=O)O)O[C@@H]1O[C@@H]1C(C(=O)O)O[C@@H](O[C@@H]2C(COS(=O)(=O)O)O[C@H](O[C@@H]3C(C(=O)O)O[C@@H](OCCCN)C(OS(=O)(=O)O)C3O)C(NC(C)=O)C2O)C(OS(=O)(=O)O)C1O (stereo partly drawn) [Example 20, 3-Aminopropyl-O-[(2-acetamido-6-O-sulfonato-2-deoxy-α-D-glucopyranosyl)-(1→4)-O-(2-O-sulfonato-α-L-idopyranosyluronate)-(1→4)-O-(2-acetamido-6-O-sulfonato-2-deoxy-α-D-glucopyranosyl)]-(1→4)-O-2-O-sulfonato-α-L-idopyranosiduronate] | 79 | 30 | 71 | 66 | 54 | 86 | 64 | 69 | 53 |
| NCCCO[C@@H]1O[C@@H](C(=O)O)[C@@H](O[C@H]2O[C@H](CO)[C@@H](O[C@@H]3O[C@@H](C(=O)O)[C@@H](O[C@H]4O[C@H](CO)[C@@H](O)[C@H](OS(=O)(=O)O)[C@H]4N)[C@H](O)[C@H]3O)[C@H](OS(=O)(=O)O)[C@H]2N)[C@H](O)[C@H]1O [Example 22, 3-Aminopropyl-O-[(2-amino-3-O-sulfonato-2-deoxy-α-D-glucopyranosyl)-(1→4)-O-(α-L-idopyranosyluronate)-(1→4)-O-(2-amino-3-O-sulfonato-2-deoxy-α-D-glucopyranosyl)]-(1→4)-O-α-L-idopyranosiduronate] | 58 | 28 | 83 | 62 | 20 | 78 | 65 | 84 | 51 |
| CC(=O)NC1C(O)[C@H](O)C(CO)O[C@@H]1O[C@@H]1C(C(=O)O)O[C@@H](O[C@@H]2C(CO)O[C@H](O[C@@H]3C(C(=O)O)O[C@@H](OCCCN)C(OS(=O)(=O)O)C3O)C(NC(C)=O)C2O)C(OS(=O)(=O)O)C1O (stereo partly drawn) [Example 14, 3-Aminopropyl-O-[(2-acetamido-2-deoxy-α-D-glucopyranosyl)-(1→4)-O-(2-O-sulfonato-α-L-idopyranosyluronate)-(1→4)-O-(2-acetamido-2-deoxy-α-D-glucopyranosyl)]-(1→4)-O-2-O-sulfonato-α-L-idopyranosiduronate] | 21 | 0 | 23 | 21 | 1 | 1 | 11 | 11 | 2 |
| NCCOCCO[C@@H]1O[C@@H](C(=O)O)[C@@H](O[C@@H]2O[C@@H](C(=O)O)[C@@H](O[C@@H]3O[C@@H](C(=O)O)[C@@H](OS(=O)(=O)O)[C@H](O)[C@H]3OS(=O)(=O)O)[C@H](O)[C@H]2OS(=O)(=O)O)[C@H](O)[C@H]1OS(=O)(=O)O [Example 9, Ethoxy-2-aminoethoxyl-O-(2,4-O-disulfonato)-α-L-idopyranosyl Uronic Acid-α(1→4)(2-O-sulfonato)-α-L-idopyranosyl uronic acid-α(1→4)(2-O-sulfonato)-α-L-idopyranoside Uronic Acid] | 53 | 66 | 79 | 51 | 75 | 94 | 82 | 75 | 71 |
| NCCCO[C@@H]1O[C@@H](C(=O)O)[C@@H](O[C@H]2O[C@H](CO)[C@@H](O[C@@H]3O[C@@H](C(=O)O)[C@@H](O[C@H]4O[C@H](CO)[C@@H](O)[C@H](OS(=O)(=O)O)[C@H]4N)[C@H](O)[C@H]3OS(=O)(=O)O)[C@H](OS(=O)(=O)O)[C@H]2N)[C@H](O)[C@H]1OS(=O)(=O)O [Example 18, 3-Aminopropyl-O-[(2-amino-3-O-sulfonato-2-deoxy-α-D-glucopyranosyl)-(1→4)-O-(2-O-sulfonato-α-L-idopyranosyluronate)-(1→4)-O-(2-amino-3-O-sulfonato-2-deoxy-α-D-glucopyranosyl)]-(1→4)-O-2-O-sulfonato-α-L-idopyranosiduronate] | 64 | 1 | 48 | 66 | 4 | 35 | 27 | 45 | 9 |
